Assay results: US7320804B2, “Cough depressant composition containing iron for angiotensin-converting enzyme inhibitor inducing cough” (Samsung Life Public Welfare Foundation Samsund Medical …, priority 2000, dated 2008)
Read-outs that look alike come from different tables or passages of the source.

Test system: ACEI-induced cough
Conditions: for Change of cough score, treatment versus observation period (in words): Wilcoxon's signed rank sum test, iron taking group; for Degree of cough, mean daily cough score: 10 patients on ACEI, observation period 6.14 ± 1.41
Procedure: The research pertaining to the ACEI-induced cough depressant effect by the iron was carried out with nineteen patients taking ACEI. These subjects were patients who developed cough as a result of the side effect caused by taking ACEI. The experiment period was divided into the observation period and the treatment period. 10 of the patients took iron and 9 of the patients took placebo.
The effect of the cough depressant containing iron of the present invention was tested. The cough depressant composition used in the test was ferrous sulphate. Anemia medicine sold as Feroba (trademark), whose ferrous sulphate was removed, was used as the placebo. The 19 tested patients had developed persistent dry cough while taking ACEI for various reasons. They include 6 men and 13 women, whose mean age was 59.9±12.2 years. The patients were divided into groups; the treatment group, which comprised 10 patients taking iron, and the control group, comprising 9 patients taking placebo. The characteristics of the patients are denoted in Table 1. All the patients gave informed consent, and the test was approved by the ethical committee of the Samsung Medical Center and Samsung Biomedical Research Center, Seoul, Korea.
ACEI-induced cough was defined as dry cough that occurred with ACEI use that subsided in seven days after discontinuation of the drug, and reappeared within 48 hours after the re-introduction of the drug and with no abnormality in the lungs and the bronchi.
19 patients completed a cough diary during a 2-week observation period while taking ACEI only. […] Each day was divided into two 12-hour periods. The daytime period began at 8 A.M., and the nighttime period, vice versa. Patients recorded the cough score for each period.
At the end of the observation period, blood samples were drawn from the patient for evaluation of hemoglobin level, hematocrit, iron concentration, total iron binding capacity (“TIBC”), and ferritin concentration. After sampling, they were randomized to either an iron taking group or placebo taking group. 256 mg of ferrous sulfate (of which 80 mg is ferrate) was daily administered to the iron taking group. During the four weeks of the treatment period, subjects were asked to fill in a cough diary in the identical way that they completed the diary in the observation period. After four weeks of the treatment period, blood sampling was repeated for the same evaluation (hemoglobin level, hematocrit, iron concentration, total iron binding capacity (“TIBC”) and ferritin concentration) that was performed in the initiation of the treatment period.
Cough scores from the last week of the observation period and the last week of the treatment period were compared and evaluated. The total sum of the cough scores were calculated from cough scores during the daytime and the nighttime recorded from the range of 0 to 4 for the last week of the observation period and the treatment period, and mean daily cough scores were calculated by dividing the total amount by days. Also, the cough score during the daytime and the nighttime was compared separately. […] The two groups were compared using Wilcoxon's signed rank sum test.

Compound: O=S(=O)([O-])[O-].[Fe+2] [Iron, ferrous sulphate]
- Change of cough score, treatment versus observation period (in words) (listed as ferrous sulphate): significantly reduced
- Change of cough score, treatment versus observation period (in words) (listed as iron): significant reduction of dry cough
- Degree of cough, mean daily cough score (last week of 4-week treatment period, 256 mg ferrous sulfate daily, mean ± SD): 3.39 ± 2.20 score
- Degree of cough, mean daily cough score (last week of 4-week treatment period, 256 mg ferrous sulfate daily, mean ± SD, listed as iron): 3.39±2.20 score
- Degree of cough, daytime cough score (last week of 4-week treatment period, 256 mg ferrous sulfate daily, mean ± SD, observation period 2.86 ± 0.86): 1.51 ± 1.00 score
- Degree of cough, nighttime cough score (last week of 4-week treatment period, 256 mg ferrous sulfate daily, mean ± SD, observation period 3.29 ± 0.73): 1.87 ± 1.24 score
- Number of patients showing almost complete abolishment of cough (of 10 patients in the iron taking group): three
- Number of patients showing reduction in cough (decrease in cough score) (of 10 patients who took iron, treatment versus observation period): 9 patients
